In brackets after ≈: the same amount, converted by molar mass. Entries after “also recorded” stand apart in the source; their conditions may differ.
Experiments:
[1] = tested on: panel of six cell lines (A-549, MCF-7, HT-29, A-498, PC-3, PACA-2); experiment: cytotoxicity against the panel of six human tumor cell lines; type: cell-based; conditions: for spectra of cytotoxic selectivities, squamotacin versus molvizarin: Table 1
Protocol: (§1) The cytotoxicities of squamotacin, molvizarin and bullatacin were evaluated, in the same run, against a panel of six cell lines (Table 1). Adriamycin was included as a standard. The relative cytotoxicity of the compounds to non-tumor cells was determined based on the brine shrimp lethality assay (BSA). The panel of tumor cell lines tested includes human lung carcinoma (A-549), human breast carcinoma (MCF-7), human colon adenocarcinoma (HT-29), human renal carcinoma (A-498), human prostate adenocarcinoma (PC-3) and human pancreatic carcinoma (PACA-2).
(§2) The brine shrimp (Artemia salina Leach) test (BST) was performed as modified to determine LC50 values in μg/ml. Zhao et al., Phytochemistry, 33, p. 1065 (1993). Seven-day in vitro cytotoxicity tests against human tumor cell lines were carried out at the Purdue Cancer Center, using standard protocols for A-549 (human lung carcinoma), MCF-7 (human breast carcinoma) and HT-29 (human colon carcinoma), human renal carcinoma (A-498), human prostate adenocarcinoma (PC-3) and human pancreatic carcinoma (PACA-2) with adriamycin as a positive control. The reported ED50 values in μg/ml (Table 1) were tabulated from the same run, except where noted, in order to facilitate comparison for the SAR's.

in vivo = experiment: in vivo; parameters: species or system Artemia salina Leach (brine shrimp); conditions: brine shrimp larvae, read-out: BST LC30
Protocol: as §1, §2

[2] = tested on: PC-3 (human prostate adenocarcinoma); experiment: seven-day in vitro cytotoxicity, PC-3; type: cell-based; conditions: for activity relative to the positive control adriamycin: PC-3, versus adriamycin; for selectivity for the prostate cell line (PC-3): PC-3, versus other cell lines of Table 1
Protocol: as §1, §2

[3] = tested on: A2780 human ovarian cancer xenografts; conditions: 50 μg/kg, athymic mice bearing A2780 human ovarian cancer xenografts; cited from earlier work

SMILES | spectra of cytotoxic selectivities, squamotacin versus molvizarin [1] | activity relative to bullatacin in the cell panel ([1]; six cell lines, versus bullatacin) | LC50 (in vivo) [ng/mL] | activity relative to the positive control adriamycin [2] | selectivity for the prostate cell line (PC-3) [2] | tumor growth inhibition (TGI) [3] [%]
CCCCCCCCCCCC[C@H](O)[C@H]1CC[C@H]([C@H]2CC[C@H]([C@H](O)CCCCCCCC[C@@H](O)CC3=C[C@H](C)OC3=O)O2)O1 [Compound 1, squamotacin] | quite similar | less activity than bullatacin in five of the six cell lines tested, with HT-29 (colon) being the exception | 6.8 (≈ 0.0109 µM) | over 100 million | high selectively for the prostate cell line (PC-3); also recorded: high selectivity | –
CCCCCCCCCC[C@H](O)[C@H]1CC[C@H]([C@H]2CC[C@H]([C@H](O)CCCCCCCC[C@@H](O)CC3=C[C@H](C)OC3=O)O2)O1 [Compound 2, molvizarin] | quite similar | – | – | over 100 million | high selectively for the prostate cell line (PC-3); also recorded: showed selectivity for PC-3; also recorded: high selectivity | –
CCCCCCCCCC[C@H](O)[C@H]1CC[C@H]([C@H]2CC[C@H]([C@H](O)CCCCCCCCCC[C@@H](O)CC3=C[C@H](C)OC3=O)O2)O1 [Compound 3, bullatacin] | – | – | – | – | – | 67

— patent publication US5955497A, “Bioactive acetogenins” (Purdue Research Foundation, priority 1998, dated 1999)
